Reference: patent US10800741B2 (ANCUREALL PHARMACEUTICAL (SHANGHAI) CO., LTD., priority 2017, dated 2020)

Columns and labels:
KCL-22 (BCR-ABL) = assay: In vitro growth inhibition of KCL-22 tumor cells (MTT/CCK8); assay type: cell-based, Human; conditions: Homo sapiens, KCL-22; in vitro growth inhibition (or induction of apoptosis), cells cultured 3 to 5 days, MTT (CCK8); read-out: IC50 KCL-22 (BCR-ABL)
H1703 (PDGFRa amp) = assay: In vitro growth inhibition of H1703 tumor cells (MTT/CCK8); assay type: cell-based, Human; conditions: Homo sapiens, NCI-H1703; in vitro growth inhibition (or induction of apoptosis), cells cultured 3 to 5 days, MTT (CCK8); read-out: IC50 H1703 (PDGFRa amp)
Karpas 299 (NPM-ALK) = assay: In vitro growth inhibition of Karpas 299 tumor cells (MTT/CCK8); assay type: cell-based, Human; conditions: Homo sapiens, KARPAS-299; in vitro growth inhibition (or induction of apoptosis), cells cultured 3 to 5 days, MTT (CCK8); read-out: IC50 Karpas 299 (NPM-ALK)
RS4:11 = assay: In vitro growth inhibition of FLT3 wild type overexpressing cells RS4:11; assay type: cell-based; conditions: Homo sapiens, cells over expressing FLT3 wild-type
Protocol: Adherent cells were digested with 0.25% trypsin-EDTA (Gibco). Suspension culture cells were collected by centrifugation (1700 rpm, 3 minutes). The supernatant was discarded and the cells were counted. According to each cell growth cycle, different concentrations of cells were prepared (5˜10×10^4 cells per ml), and inoculated to 96-well plates (Corning), with 100 μl per well, and incubated overnight at 37° C., 5% CO2. The next day, the test compound was added to the cultured cells (2 wells in parallel). The final concentration of the solvent was less than 1/1,000. The cells were further cultured for 3 to 5 days and assayed by MTT.
The MTT test reagent was a Dojindo CCK8 kit and the Microplate Reader was a THERMO […] FC instrument.
The adherent cells were taken out from the cell culture medium, and immediately added to a freshly prepared complete medium containing 10% CCK8 (5% FBS), 100 ul per hole. The suspended cells were directly added to a CCK8 reagent until reaching a final concentration of 10% and cultured for 1 to 4 hours. When a dark yellow color could be observed in the solvent control wells, the absorbance value at OD450 nm was measured and the cell growth rate was calculated according to the following formula: Cell Growth Rate (%)=100×(T−T0)/(C−T0)
T=optical density of drug-treated cell wells−optical density of blank control wells; T0=optical density of cell wells before drug treatment−optical density of blank control wells; C=optical density of solvent control wells−optical density of blank control wells. […] The experiments were repeated 1 to 3 times and a statistical analysis of data was conducted.
The present compounds which has a high growth inhibition activity on tumor cells positive expressing FLT3-ITD were selected for the determination of IC50 concentration on FLT3 wild tyoverexpressing cells RS4:11 and FLT3 wild-type normal expressing cells Jurkat. The specific test method is the same as that of test example 1.

MOLM-13 (FLT3-ITD) = assay: In vitro growth inhibition of MOLM-13 tumor cells (MTT/CCK8); assay type: cell-based, Human; conditions: Homo sapiens, MOLM-13; in vitro growth inhibition (or induction of apoptosis), cells cultured 3 to 5 days, MTT (CCK8); read-out: IC50 MOLM-13 (FLT3-ITD)
Kasumi-1 (KIT N822K) = assay: In vitro growth inhibition of Kasumi-1 tumor cells (MTT/CCK8); assay type: cell-based, Human; conditions: Homo sapiens, Kasumi 1; in vitro growth inhibition (or induction of apoptosis), cells cultured 3 to 5 days, MTT (CCK8); read-out: IC50 Kasumi-1 (KIT N822K)
H1581 (FGFR1 amp) = assay: In vitro growth inhibition of H1581 tumor cells (MTT/CCK8); assay type: cell-based, Human; conditions: Homo sapiens, NCI-H1581; in vitro growth inhibition (or induction of apoptosis), cells cultured 3 to 5 days, MTT (CCK8); read-out: IC50 H1581 (FGFR1 amp)
Hep3B2 (FGFR3/4+++) = assay: In vitro growth inhibition of Hep3B2 tumor cells (MTT/CCK8); assay type: cell-based, Human; conditions: Homo sapiens, Hep3B; in vitro growth inhibition (or induction of apoptosis), cells cultured 3 to 5 days, MTT (CCK8); read-out: IC50 Hep3B2 (FGFR3/4+++)
KATO III (FGFR2 amp) = assay: In vitro growth inhibition of KATO III tumor cells (MTT/CCK8); assay type: cell-based, Human; conditions: Homo sapiens, KATO III; in vitro growth inhibition (or induction of apoptosis), cells cultured 3 to 5 days, MTT (CCK8); read-out: IC50 KATO III (FGFR2 amp)
[1] = test system: human non-small cell lung cancer cell line NCI-H1299 (NRAS Q61K mutation); assay: Growth inhibition in combination with MEK1/2 inhibitor Trametinib, NCI-H1299 (NRAS Q61K mutation); assay type: cell-based; conditions: 5 days
Protocol: (§1) Test Example 5 Synergistic Inhibition Effect of the Present Compounds in Combination with MEK1/2 Inhibitor on the Growth of RAS Mutant Tumor Cells In Vitro
(§2) The cell culture, drug treatment and MTT assay of human intestinal cancer cell line HCT116 (KRAS G13D mutation) and human non-small cell lung cancer cell line NCI-H1299 (NRAS Q61K mutation) were performed according to the method of test example 1. Cells were treated with the MEK1/2 inhibitor Trametinib at 25 nM, 2.5 nM and 0.25 nM alone or in combination with compound 66 or 125 of the present invention (5 days).

[2] = test system: human intestinal cancer cell line HCT116 (KRAS G13D mutation); assay: Growth inhibition in combination with MEK1/2 inhibitor Trametinib, HCT116 (KRAS G13D mutation); assay type: cell-based; conditions: 5 days
Protocol: as §1, §2

[3] = compound 7.8 nM + Trametinib 0.25 nM
[4] = compound 7.8 nM + Trametinib 2.5 nM
[5] = compound 7.8 nM + Trametinib 25 nM
[6] = compound 15.6 nM + Trametinib 0.25 nM
[7] = compound 15.6 nM + Trametinib 2.5 nM
[8] = compound 15.6 nM + Trametinib 25 nM

| SMILES | IC50 (KCL-22 (BCR-ABL)) | IC50 (H1703 (PDGFRa amp)) | IC50 (Karpas 299 (NPM-ALK)) | IC50 (MOLM-13 (FLT3-ITD)) | IC50 (Kasumi-1 (KIT N822K)) | IC50 (H1581 (FGFR1 amp)) | IC50 (Hep3B2 (FGFR3/4+++)) | IC50 (KATO III (FGFR2 amp)) | other results |
| --- | --- | --- | --- | --- | --- | --- | --- | --- | --- |
| COc1cc2nccc(Oc3ccc(NC(=O)Nc4cc(C(C)(C)C)n[nH]4)cc3C(C)C)c2cc1C(N)=O [Compound 107, 4-{4-[3-(5-tert-butyl-2H-pyrazol-3-yl)-ureido]-2-isopropyl-phenoxy}-7-methoxy-quinolin-6-carboxamide] | 589 nM | 263 nM | 759 nM | 50.4 nM | > 1000 nM | 341 nM | > 1000 nM | 345 nM | – |
| COc1cc2nccc(Oc3ccc(NC(=O)Nc4cc(C(C)(C)C)nn4C)c(C)c3C)c2cc1C(N)=O [Compound 110, 4-{4-[3-(5-tert-butyl-2-methyl-2H-pyrazol-3-yl)-ureido]-2,3-dimethyl-phenoxy}-7-methoxy-quinolin-6-carboxamide] | 3.21 nM | 46.1 nM | 508 nM | 19.7 nM | 0.41 nM | 8.36 nM | 83.8 nM | 2.98 nM | – |
| CC(C)(C)c1cc(NC(=O)Nc2ccc(Oc3ccnc4c(F)cccc34)cc2Cl)no1 [Compound 113, 1-(5-tert-butyl-isoxazol-3-yl)-3-[2-chloro-4-(8-fluoro-quinolin-4-yloxy)-phenyl]-urea] | > 1000 nM | 568 nM | > 1000 nM | > 500 nM | > 1000 nM | > 1000 nM | > 1000 nM | 498 nM | – |
| CC(C)(C)c1cc(NC(=O)Nc2ccc(Oc3ccnc4c(C(F)(F)F)cccc34)cc2Cl)no1 [Compound 114, 1-(5-tert-butyl-isoxazol-3-yl)-3-[2-chloro-4-(8-trifluoromethyl-quinolin-4-yloxy)-phenyl]-urea] | > 5000 nM | > 1000 nM | > 1000 nM | > 1000 nM | > 1000 nM | > 1000 nM | > 1000 nM | > 1000 nM | – |
| CC(C)(C)c1cc(NC(=O)Nc2ccc(Oc3cc(C(F)(F)F)nc4ccccc34)cc2Cl)no1 [Compound 115, 1-(5-tert-butyl-isoxazol-3-yl)-3-[2-chloro-4-(2-trifluoromethyl-quinolin-4-yloxy)-phenyl]-urea] | > 5000 nM | > 1000 nM | > 1000 nM | > 1000 nM | > 1000 nM | > 1000 nM | > 1000 nM | 746 nM | – |
| CC(=O)Nc1cccc(-n2c(=O)n(C3CC3)c(=O)c3c(Nc4ccc(I)cc4F)n(C)c(=O)c(C)c32)c1 [Trametinib, reference compound] | – | – | – | – | – | – | – | – | inhibition at 0.00025 µM ([1]; Homo sapiens, NCI-H1299, 120 h, Trametinib 0.25 nM alone, read-out: cell growth inhibition (percentage)): 2.2%; inhibition at 0.0025 µM ([1]; Homo sapiens, NCI-H1299, 120 h, Trametinib 2.5 nM alone, read-out: cell growth inhibition (percentage)): 6.31%; inhibition at 0.025 µM ([1]; Homo sapiens, NCI-H1299, 120 h, Trametinib 25 nM alone, read-out: cell growth inhibition (percentage)): 15.5%; inhibition at 0.00025 µM ([2]; Homo sapiens, HCT-116, 120 h, Trametinib 0.25 nM alone, read-out: cell growth inhibition (percentage)): 12.1%; inhibition at 0.0025 µM ([2]; Homo sapiens, HCT-116, 120 h, Trametinib 2.5 nM alone, read-out: cell growth inhibition (percentage)): 27.7%; inhibition at 0.025 µM ([2]; Homo sapiens, HCT-116, 120 h, Trametinib 25 nM alone, read-out: cell growth inhibition (percentage)): 75.1% |

Now from value to compound, other results behind:

| IC50 (KCL-22 (BCR-ABL)) | IC50 (H1703 (PDGFRa amp)) | IC50 (Karpas 299 (NPM-ALK)) | IC50 (MOLM-13 (FLT3-ITD)) | IC50 (Kasumi-1 (KIT N822K)) | IC50 (H1581 (FGFR1 amp)) | IC50 (Hep3B2 (FGFR3/4+++)) | IC50 (KATO III (FGFR2 amp)) | SMILES | other results |
| --- | --- | --- | --- | --- | --- | --- | --- | --- | --- |
| 23.9 nM | 71.5 nM | 114 nM | 0.27 nM | 26.1 nM | 53.4 nM | 153 nM | 5.5 nM | CNC(=O)c1cc2c(Oc3ccc(NC(=O)Nc4cc(C(C)(C)C)n[nH]4)cc3Cl)ccnc2cc1OC [Compound 54, 4-{4-[3-(5-tert-butyl-2H-pyrazol-3-yl)-ureido]-2-chloro-phenoxy}-7-methoxyquinolin-6-carboxylic acid methylamide] | IC50 (RS4:11): 531 nM |
| 45.3 nM | 71.9 nM | 187 nM | 0.59 nM | 57.3 nM | 39.6 nM | 83.4 nM | 4.07 nM | C=CC(=O)Nc1cc2c(Oc3ccc(NC(=O)Nc4cc(C(C)(C)C)n[nH]4)cc3Cl)ccnc2cc1OC [Compound 105, N-(4-{4-[3-(5-tert-butyl-2H-pyrazol-3-yl)-ureido]-2-chloro-phenoxy}-7-methoxy-quinolin-6-yl)-acrylamide] | – |
| 115 nM | 120 nM | 380 nM | 9.37 nM | 176 nM | 168 nM | > 1000 nM | 46.7 nM | CCc1cc(NC(=O)Nc2cc(C(C)(C)C)n[nH]2)ccc1Oc1ccnc2cc(OC)c(C(N)=O)cc12 [Compound 106, 4-{4-[3-(5-tert-butyl-2H-pyrazol-3-yl)-ureido]-2-ethyl-phenoxy}-7-methoxy-quinolin-6-carboxamide] | – |
| 2.48 nM | 108 nM | 559 nM | 18.7 nM | 0.471 nM | 17.7 nM | 98.7 nM | 1.55 nM | COc1cc2nccc(Oc3ccc(NC(=O)Nc4cc(C(C)(C)C)n[nH]4)c(C)c3C)c2cc1C(N)=O [Compound 109, 4-{4-[3-(5-tert-butyl-2H-pyrazol-3-yl)-ureido]-2,3-dimethyl-phenoxy}-7-methoxy-quinolin-6-carboxamide] | – |
| – | – | – | 1.2 nM | – | 1.06 nM | – | 0.23 nM | COCCOc1cc2nccc(Oc3ccc(NC(=O)Nc4cc(C(C)(C)C)nn4C4CC4)c(Cl)c3)c2cc1NC(C)=O [Compound 125] | inhibition at 0.0078 µM ([1]; Homo sapiens, NCI-H1299, 120 h, compound 7.8 nM alone (solvent instead of Trametinib), read-out: cell growth inhibition (percentage)): 1.63%; inhibition at 0.0156 µM ([1]; Homo sapiens, NCI-H1299, 120 h, compound 15.6 nM alone (solvent instead of Trametinib), read-out: cell growth inhibition (percentage)): 6.5%; cell growth inhibition (percentage) [1, 3]: 9.27%; cell growth inhibition (percentage) [1, 4]: 24.38%; cell growth inhibition (percentage) [1, 5]: 46.25%; cell growth inhibition (percentage) [1, 6]: 19.92%; cell growth inhibition (percentage) [1, 7]: 34.72%; cell growth inhibition (percentage) [1, 8]: 58.26%; inhibition at 0.0078 µM ([2]; Homo sapiens, HCT-116, 120 h, compound 7.8 nM alone (solvent instead of Trametinib), read-out: cell growth inhibition (percentage)): 14.5%; inhibition at 0.0156 µM ([2]; Homo sapiens, HCT-116, 120 h, compound 15.6 nM alone (solvent instead of Trametinib), read-out: cell growth inhibition (percentage)): 19.9%; cell growth inhibition (percentage) [2, 3]: 62.54%; cell growth inhibition (percentage) [2, 4]: 76.01%; cell growth inhibition (percentage) [2, 5]: 82.04%; cell growth inhibition (percentage) [2, 6]: 71.98%; cell growth inhibition (percentage) [2, 7]: 79.72%; cell growth inhibition (percentage) [2, 8]: 82.82% |
